Paper PMC8069289 (Molecules, 2021)
Entries after “also recorded” stand apart in the source; their conditions may differ.

Columns and labels:
HL-60 cells [1] = assay: Cytotoxicity assay, Trypan blue exclusion test; format: cell-based, human; conditions: HL-60, 72 h
Method: Promyelocytic human leukaemia (HL-60) immortal cells originated from a person suffering myeloid leukaemia were grown as suspension cultures in RPMI-1640 medium ([…], Sigma-Aldrich, St. Louis, MO, USA) supplemented with 10% heat-inactivated foetal bovine serum (S01805, Linus, Madrid, Spain), L-glutamine 2 mM (G7513, Sigma-Aldrich, St. Louis, MO, USA) and 1× antibiotic-antimycotic solution from a 100× stock solution containing 10,000 units of penicillin, 10 mg of streptomycin and 25 μg of amphotericin B per mL ([…], Sigma-Aldrich, St. Louis, MO, USA). Cells were incubated at 37 °C in a 80% humidified atmosphere 5% CO2. Cultures were plated at 2.5 × 10^4 cells/mL density in 10 mL culture bottles and passed every 2 days. Trypan blue exclusion test was used to determine the cell viability exerted by the assayed compounds, according to our standard procedures. […] After culture, cells were stained with a 1:1 volume ratio of Trypan blue dye (T8154, Sigma-Aldrich, St. Louis, MO, USA) and counted in a Neubauer chamber at 100× magnification. The survival percentage of each treatment compared with the control was recorded in three independent replicates. Data are expressed as mean ± standard deviation of the mean (SEM).

[2] = test system: Sat-α repetitive sequences of HL-60 cells; assay: Methylation status by qMSP, Sat-α; format: cell-based, human; conditions: HL-60, 5 h
Method: (§1) Then, DNA was extracted similarly to previously described DNA fragmentation assay. After that, the DNA was converted with bisulphite (EZ DNA Methylation-Gold™ Kit, Zymo Research, Irvine, CA, USA). Bisulphite-modified DNA was used for fluorescence-based real-time quantitative Methylation-Specific PCR (qMSP) using 5 µM of each forward and reverse primer (Isogen Life Science BV, Utrecht, The Netherlands), 2 µL of iTaq™ Universal SYBR® Green Supermix (Bio-Rad Laboratories, Inc., Hercules, CA, USA); it contains antibody-mediated hot-start iTaq DNA polymerase, dNTPs, MgCl2, SYBR® Green I dye, enhancers, stabilizers and a blend of passive reference dyes including ROX and fluorescein) and 25 ng of bisulphite converted genomic DNA.
(§2) PCR conditions included initial denaturalisation at 95 °C for 3 min and amplification which consisted of 45 cycles at 95 °C for 10 s, 60 °C for 15 s and 72 °C for 15 s, taking picture at the end of each elongation cycle. After that, melting curve was determined increasing 0.5 °C each 0.05 s from 60 °C to 95 °C and taking pictures.
QMSP was carried out in 48 well plates in MiniOpticon Real-Time PCR System (MJ Mini Personal Thermal Cycler, Bio-Rad) and were analysed by Bio-Rad CFX Manager 3.1 Software. The housekeeping Alu-C4 was used as a reference to correct for total DNA input. […] Each sample was analysed in triplicate. […]

[3] = test system: LINE-1 repetitive sequences of HL-60 cells; assay: Methylation status by qMSP, LINE-1; format: cell-based, human; conditions: HL-60, 5 h
Method: as §1, §2
QMSP was carried out in 48 well plates in MiniOpticon Real-Time PCR System (MJ Mini Personal Thermal Cycler, Bio-Rad) and were analysed by Bio-Rad CFX Manager 3.1 Software. The housekeeping Alu-C4 was used as a reference to correct for total DNA input. Alu-C4 and the target repetitive elements Alu-M1, LINE-1 and Sat-α were obtained from Isogen Life Science (Utrecht, The Netherlands) and their sequences are shown in Table 4. Each sample was analysed in triplicate.
The results of each CT were obtained from each qMSP. Data were normalised with the housekeeping Alu C4 using the Nikolaidis et al. and Liloglou et al. comparative CT method (ΔΔCT). One-way ANOVA and post-hoc Tukey’s test are used to evaluate the differences between the tested compounds, repetitive elements and concentrations.

Drosophila melanogaster = assay: Antigenotoxicity, wing spot test, combined treatment with hydrogen peroxide; format: in vivo; design: key to Total Spots, statistical diagnosis (Kastenbaum-Bowman test): * (positive); Δ (negative); β (inconclusive) vs. respective positive control
Method: All inconclusive and positive results (p > 0.05) were analysed with the nonparametric U-test of Mann, Whitney and Wilcoxon (α = β = 0.05). Anter et al. described the antigenotoxicity method conducted in D. melanogaster. […] Single and twin spots per wing were also recorded and compared with the concurrent negative control as described before. Finally, the inhibition percentages (IP) for the combined treatments were calculated as described by Abraham: IP = [(genotoxin alone-combined treatment)/genotoxin alone] × 100.

HL-60 cells [4] = assay: Alkaline SCGE (comet assay), Tail Moment; format: cell-based, human; conditions: HL-60, 5 h
Method: DNA integrity was assayed by SCGE as described by Olive and Banáth with minor modifications. […] After treatment, cells were washed twice and adjusted to 6.25 × 10^5 cells/mL in PBS. Electrophoresis gels were prepared pouring a 1:4 dilution (cells in liquid low-melting-point agarose at 40 °C, […], Sigma) into slides. Gels were covered with a coverslip and allowed to solidify at RT for 30 min. Once the slides solidified, the coverslips were carefully removed and slides were bathed in freshly prepared lysing solution (2.5 M NaCl, 100 mM Na-EDTA, 10 mM Tris, 250 mM NaOH, 10% DMSO and 1% Triton X-100; pH = 13) for 1 h at 4 °C. Thereafter, slides were equilibrated in alkaline electrophoresis buffer (300 mM NaOH and 1 mM Na-EDTA, pH = 13) for 20-30 min at 4 °C. Once equilibrated, the slides were underwent electrophoresis (12 V, 400 mA for 8 min) in the dark and were immediately neutralized in cold neutral solution (0.4 M Tris-HCl buffer, pH 7.5) for 10 min. […] Gels were stained with 7 μL propidium iodide and photographed in a DM2500 microscope (Leica Microsystems GmBH, Wetzlar, Germany) at 400× magnification. […] A one-way ANOVA and post-hoc Tukey's test with SPSS Statistics for Windows, Version 19.0 (2010, IBM Corporation, Armonk, NY, USA) was applied to determine the effect of the tested compounds on HL-60 cell DNA integrity from the analyses of Tail Moment (TM) data.

[5] = GLU 11 mM + 0.15 M H2O2, No. of spots in parentheses
[6] = GLU 350 mM + 0.15 M H2O2, No. of spots in parentheses
[7] = TAU 1 mM + 0.15 M H2O2, No. of spots in parentheses
[8] = TAU 32 mM + 0.15 M H2O2, No. of spots in parentheses

`OC[C@H]1OC(O)[C@H](O)[C@@H](O)[C@@H]1O` (stereo partly drawn) [GLU, Glucose] was tested, and the IC50 (HL-60 cells [1]; Homo sapiens, mean ± SD in Figure 3, read-out: IC50 (inhibitory concentration 50)) was 42.7 mM, the “methylation status of satellite alpha sequences” value ([2]; 350 mM GLU) was “hypermethylated” and the “methylation status of LINE elements” value ([3]; 11 mM GLU) was “hypomethylated”. The “methylation status of LINE repetitive element” value ([3]; 350 mM GLU) was “reduced the methylation status”, the “IP (%) inhibition percentage” value (Drosophila melanogaster; GLU 11 mM + 0.15 M H2O2) was 76.5% and the “Twin Spots m = 5” value (Drosophila melanogaster; GLU 11 mM + 0.15 M H2O2) was 0 clones per wing. The “Large Simple Spots (>2 Cells) m = 5” value (Drosophila melanogaster; [5]) was 0.025 (1) clones per wing, the “Small Single Spots (1–2 Cells) m = 2” value (Drosophila melanogaster; [5]) was 0.075 (3) clones per wing and the “Total Spots m = 2” value (Drosophila melanogaster; [5]) was 0.1 (4) clones per wing. The “Total Spots, statistical diagnosis (Kastenbaum-Bowman test)” value (shortened to “Total Spots, statistical diagnosis”) (Drosophila melanogaster; GLU 11 mM + 0.15 M H2O2 vs positive control) was “*”, the “IP (%) inhibition percentage” value (Drosophila melanogaster; GLU 350 mM + 0.15 M H2O2) was 52.9% and the “Twin Spots m = 5” value (Drosophila melanogaster; GLU 350 mM + 0.15 M H2O2) was 0 clones per wing. The “Large Simple Spots (>2 Cells) m = 5” value (Drosophila melanogaster; [6]) was 0.025 (1) clones per wing, the “Small Single Spots (1–2 Cells) m = 2” value (Drosophila melanogaster; [6]) was 0.175 (7) clones per wing and the “Total Spots m = 2” value (Drosophila melanogaster; [6]) was 0.2 (8) clones per wing. The “Total Spots, statistical diagnosis” value (Drosophila melanogaster; GLU 350 mM + 0.15 M H2O2 vs positive control) was “*” and the “TM versus concurrent control (DNA damage)” value (HL-60 cells [4]; three lowest concentrations of the cytotoxicity assay) was “significantly induce TM values higher than the concurrent control”.
With `NCCS(=O)(=O)O` [TAU, 2-aminoethanesulfonic acid] the cell proliferation (HL-60 cells [1]; 2 mM TAU) was “induced a decrease of cell proliferation”, the cytotoxic activity (HL-60 cells [1]; any assayed concentration) was “did not show cytotoxic activity” and the “IC50 (inhibitory concentration 50)” value (HL-60 cells [1]; mean ± SD in Figure 3) was “not found”. For the same compound, the “methylation status of satellite alpha sequences” value ([2]; both tested concentrations of TAU) was “significantly hypermethylated”, the “methylation status of LINE-1” value ([3]; TAU highest concentration (32 mM)) was “reduced this methylation status; also recorded: induced hypomethylation” and the “IP (%) inhibition percentage” value (Drosophila melanogaster; TAU 1 mM + 0.15 M H2O2) was 70.6%. For the same compound, the “Large Simple Spots (>2 Cells) m = 5” value (Drosophila melanogaster; TAU 1 mM + 0.15 M H2O2) was 0 clones per wing, the “Twin Spots m = 5” value (Drosophila melanogaster; TAU 1 mM + 0.15 M H2O2) was 0 clones per wing and the “Small Single Spots (1–2 Cells) m = 2” value (Drosophila melanogaster; [7]) was 0.125 (5) clones per wing. The “Total Spots m = 2” value (Drosophila melanogaster; [7]) was 0.125 (5) clones per wing, the “Total Spots, statistical diagnosis” value (Drosophila melanogaster; TAU 1 mM + 0.15 M H2O2 vs positive control) was “*” and the “IP (%) inhibition percentage” value (Drosophila melanogaster; TAU 32 mM + 0.15 M H2O2) was 38.1%. The “Twin Spots m = 5” value (Drosophila melanogaster; TAU 32 mM + 0.15 M H2O2) was 0 clones per wing, the “Large Simple Spots (>2 Cells) m = 5” value (Drosophila melanogaster; [8]) was 0.026 (1) clones per wing and the “Small Single Spots (1–2 Cells) m = 2” value (Drosophila melanogaster; [8]) was 0.236 (9) clones per wing. For the same compound, the “Total Spots m = 2” value (Drosophila melanogaster; [8]) was 0.263 (10) clones per wing, the “Total Spots, statistical diagnosis” value (Drosophila melanogaster; TAU 32 mM + 0.15 M H2O2 vs positive control) was “*” and the “TM versus concurrent control (DNA damage)” value (HL-60 cells [4]; 0.25 and 2 mM TAU) was “significantly induce TM values higher than the concurrent control”. The “Tail Moment (TM) of representative photograph” value (HL-60 cells [4]; concentration not given) was 2.49.
